We go through two compounds from patent US4643987A, “Modified glycopeptides” (Eli Lilly and Company, priority 1985, dated 1987).

Experiment [1] relates to Staphylococcus aureus NRRL B313. The experiment can be described thus: agar-dilution MIC. The experiment is classed as cell-based.
Experiment [2] concerns Staphylococcus aureus V41. Put plainly: agar-dilution MIC. The experiment is classed as cell-based.
In experiment [3] the test system is Staphylococcus aureus X400. The experiment can be described thus: agar-dilution MIC. In kind it is cell-based.
Experiment [4] relates to Staphylococcus aureus S13E. In kind it is cell-based. As to conditions: agar dilution. A general note: In agar dilution the substance is mixed into plates at graded concentrations.
In experiment [5] the test system is Staphylococcus epidermidis EP11. The experiment can be described thus: agar-dilution MIC. The experiment is classed as cell-based.
The test system of experiment [6] is Staphylococcus epidermidis 222. The experiment can be described thus: agar-dilution MIC. The experiment is classed as cell-based.
Experiment [7] deals with Streptococcus pyrogenes C203. Put plainly: agar-dilution MIC. In kind it is cell-based.
Experiment [8] has as its system Streptococcus pneumoniae Park 1. The experiment is classed as cell-based. As to conditions: agar dilution.
Experiment [9] concerns Streptococcus faecium ATCC 9790. Put plainly: agar-dilution MIC. In kind it is cell-based.
Experiment [10] has as its system Streptococcus sp. group D 2041. Put plainly: agar-dilution MIC. In kind it is cell-based.
The subject of experiment [11] is Haemophilus influenzae C.L. The experiment can be described thus: agar-dilution MIC. The experiment is classed as cell-based.
In experiment [12] the test system is Haemophilus influenzae 76. The experiment can be described thus: agar-dilution MIC. The experiment is classed as cell-based.
A further experiment has as its system Staphylococcus aureus. The experiment can be described thus: experimental bacterial infection in mice, ED50. In kind it is in vivo. To be noted: two doses, subcutaneously. How it is done:
(§1) Some of the compounds of this invention have also shown in vivo antimicrobial activity against experimental bacterial infections. When two doses of test compound were administered to mice in experimental infections, the activity observed was measured as an ED50 value [effective dose in mg/kg to protect 50% of the test animals: see Warren Wick, et al., J. Bacteriol. 81, 233-235 (1961)].

The test system of the next experiment is Streptococcus pneumoniae. Put plainly: experimental bacterial infection in mice, ED50. The experiment is classed as in vivo. As to conditions: two doses, subcutaneously. How it is done:
as §1

The subject of another experiment is Streptococcus pyogenes. The experiment can be described thus: experimental bacterial infection in mice, ED50. The experiment is classed as in vivo. As to conditions: two doses, subcutaneously. As to the method:
as §1

≈ marks a conversion by molar mass, not a printed value.

For `CN[C@H](CC(C)C)C(=O)N[C@H]1C(=O)N[C@@H](CC(N)=O)C(=O)N[C@H]2C(=O)N[C@H]3C(=O)N[C@H](C(=O)N[C@H](C(=O)O)c4cc(O)cc(O)c4-c4cc3ccc4O)[C@H](O)c3ccc(c(Cl)c3)Oc3cc2cc(c3O[C@@H]2O[C@H](CO)[C@@H](O)[C@H](O)[C@H]2O[C@H]2C[C@](C)(NC(=O)CC(C)c3cccs3)[C@H](O)[C@H](C)O2)Oc2ccc(cc2Cl)[C@H]1O` (stereo partly drawn) [Compound 7, N^van --[1-oxo-3-(2-thienyl)-n-butyl]vancomycin], the MIC worked out at 1 µg/mL (≈ 0.624 µM) in experiment [1]; 1 µg/mL (≈ 0.624 µM) in experiment [2]; 1 µg/mL (≈ 0.624 µM) in experiment [3]; 2 µg/mL (≈ 1.25 µM) in experiment [4]; 8 µg/mL (≈ 5 µM) in experiment [5]; 2 µg/mL (≈ 1.25 µM) in [6]. Further, the MIC in [7] was 1 µg/mL (≈ 0.624 µM); in [8] it was 0.5 µg/mL (≈ 0.312 µM); in experiment [9], 2 µg/mL (≈ 1.25 µM); in experiment [10], 4 µg/mL (≈ 2.5 µM); in experiment [11], “-- (-- = not active at 128 mcg/ml)”; in [12], 128 µg/mL (≈ 79.9 µM). The values for the ED50 with Staphylococcus aureus, in the experiment with Streptococcus pneumoniae and with Streptococcus pyogenes were 3.05 mg/kg/2, 2.3 mg/kg/2 and 3.38 mg/kg/2, respectively.

As to “N^van -[1-oxo-2-(phenylthio)ethyl]vancomycin [Compound 10]”, the MIC in experiment [1] was 1 µg/mL; in experiment [2], 1 µg/mL; in [3] it was 1 µg/mL; in [4], 1 µg/mL; in experiment [5] it was 4 µg/mL; in experiment [6], 2 µg/mL. Also, the MIC in experiment [7] is 0.5 µg/mL; in experiment [8], 0.5 µg/mL; in [9] it was 1 µg/mL; in [10], 4 µg/mL; in [11] it was 128 µg/mL; in experiment [12], 32 µg/mL. In addition, the ED50 came out at 2.3 mg/kg/2 with Staphylococcus aureus, 1.9 mg/kg/2 in the experiment on Streptococcus pneumoniae and 4.45 mg/kg/2 in the experiment with Streptococcus pyogenes.
